Source: patent US12351648B2, “Methods of inhibiting MASP-2 for the treatment and/or prevention of coronavirus-induced acute respiratory distress syndrome” (priority 2020, dated 2025)
Where two headings read alike, the source gives them in different places. Non-standard residues stand in square brackets, D forms with d. Residues, ends and D or L forms follow the SMILES beside them. *: point of attachment. dChg = N[C@@H](C(=O)O)C1CCCCC1; Agmatine = N=C(N)NCCCCN*; Aze = O=C(O)[C@@H]1CCN1

Assays:
[1] = target: MASP-2 (CCP1-CCP2-SP) (Homo sapiens (Human), UniProt O00187); assay: Enzymatic assay for MASP-2 (fluorogenic substrate); format: biochemical; details: for MASP-2 vs. thrombin selectivity: MASP-2 inhibition versus thrombin
[2] = target: human α-thrombin (Homo sapiens (Human), UniProt P00734); assay: Enzymatic assay for thrombin (Boc-VPR-AMC); format: biochemical
[3] = test system: lectin pathway; assay: Lectin pathway activation assay in 1% human serum (C3 deposition on mannan, ELISA); format: biochemical
[4] = target: T1, mMASP-2 (Mus musculus (Mouse), UniProt Q91WP0); assay: Enzymatic assay for mMASP-2 (Ki); format: biochemical
[5] = target: T1, mMASP-2; assay: Enzymatic assay for mMASP-2 (Ki); format: biochemical; remark: listed apart in the source
[6] = test system: COVID-19 patients; details: cited from earlier work; for 28-day mortality: […] with usual care
[7] = Thrombin Ki, human α-thrombin, Boc-VPR-AMC
[8] = human α-thrombin, Boc-VPR-AMC, read-out: Thrombin Ki
[9] = oxygen support without invasive mechanical ventilation

T1 sequence (Q91WP0 20-685): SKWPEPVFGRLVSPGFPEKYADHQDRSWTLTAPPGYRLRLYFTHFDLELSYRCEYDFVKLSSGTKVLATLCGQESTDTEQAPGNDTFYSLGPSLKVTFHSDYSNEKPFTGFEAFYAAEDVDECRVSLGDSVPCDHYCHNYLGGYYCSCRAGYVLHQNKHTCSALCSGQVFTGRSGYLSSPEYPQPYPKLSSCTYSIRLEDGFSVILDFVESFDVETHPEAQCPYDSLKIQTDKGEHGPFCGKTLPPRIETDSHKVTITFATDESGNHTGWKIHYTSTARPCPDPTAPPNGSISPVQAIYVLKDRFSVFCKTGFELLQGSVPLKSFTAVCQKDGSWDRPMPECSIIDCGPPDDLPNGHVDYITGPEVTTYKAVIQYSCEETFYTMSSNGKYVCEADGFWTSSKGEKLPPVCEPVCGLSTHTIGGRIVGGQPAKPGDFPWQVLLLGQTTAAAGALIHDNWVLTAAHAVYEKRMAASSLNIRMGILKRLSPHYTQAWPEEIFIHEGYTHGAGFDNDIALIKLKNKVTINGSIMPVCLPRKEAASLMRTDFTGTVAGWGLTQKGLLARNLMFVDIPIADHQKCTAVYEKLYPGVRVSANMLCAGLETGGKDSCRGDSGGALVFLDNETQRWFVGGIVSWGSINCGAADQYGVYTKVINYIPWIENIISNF
MASP-2 (CCP1-CCP2-SP), sequence (O00187 287-686): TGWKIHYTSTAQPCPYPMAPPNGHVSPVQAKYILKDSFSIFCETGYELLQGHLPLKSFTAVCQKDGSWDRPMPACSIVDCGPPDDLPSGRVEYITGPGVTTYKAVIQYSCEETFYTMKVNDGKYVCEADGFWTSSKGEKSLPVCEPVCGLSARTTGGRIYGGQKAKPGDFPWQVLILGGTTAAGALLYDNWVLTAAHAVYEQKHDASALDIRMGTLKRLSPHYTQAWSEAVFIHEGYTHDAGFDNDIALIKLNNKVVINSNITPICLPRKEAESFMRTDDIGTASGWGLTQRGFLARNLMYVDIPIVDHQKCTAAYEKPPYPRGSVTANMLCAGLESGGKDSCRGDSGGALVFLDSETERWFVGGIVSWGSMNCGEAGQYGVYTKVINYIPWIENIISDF

SMILES: N=C(N)NCCCCNC(=O)[C@@H]1CCN1C(=O)[C@H](N)C1CCCCC1 [Compound 1006] (H-[dChg]-[Aze]-Agmatine)
- MASP-2 vs. thrombin selectivity [1]: — (less than 1.0-fold)

SMILES: C[C@H](NC(=O)C1CC(c2ccccc2)CCN1)C(=O)NCc1ccc(N)nc1 (stereo partly drawn) [Compound 1025]
- Ki [2, 7]: > 25 µM
- IC50 ([3]; read-out: Lectin Pathway IC50): 500 to 5000 nM

SMILES: N=C(N)c1ccc(CNC(=O)[C@@H]2CCCN2C(=O)[C@H](N)C2CCCCC2)cc1 [Compound 1027]
- MASP-2 vs. thrombin selectivity [1]: — (less than 1.0-fold)

SMILES: C[C@H](NC(=O)[C@H](N)CCc1ccccc1)C(=O)NCc1ccc2nc(N)[nH]c2c1 [Compound 1040]
- MASP-2 vs. thrombin selectivity [1]: **** (>100-fold)
- Ki ([1]; read-out: MASP-2 Ki): < 0.5 µM
- Ki [4]: < 500 nM
- Ki [2, 7]: > 25 µM
- IC50 ([3]; read-out: Lectin Pathway IC50): 500 to 5000 nM

SMILES: C[C@H](NC(=O)[C@H](N)CCc1ccc(F)cc1)C(=O)NCc1ccc(C(=N)N)cc1 [Compound 1047]
- Ki [2, 8]: < 2.5 µM

SMILES: C[C@H](NC(=O)C1CC(c2ccccc2)CCN1)C(=O)NCc1ccc(C(=N)N)cc1 (stereo partly drawn) [Compound 1065]
- Ki [4]: < 500 nM
- IC50 ([3]; read-out: Lectin Pathway IC50): < 50 nM

SMILES: C[C@H](NC(=O)[C@@H](CCc1ccccc1)NC1CCCCC1)C(=O)NCc1ccc(C(=N)N)cc1 [Compound 1130]
- MASP-2 vs. thrombin selectivity [1]: — (less than 1.0-fold)

SMILES: C[C@H](NC(=O)[C@@H](CCc1ccccc1)NCc1ccc(O)cc1)C(=O)NCc1ccc(C(=N)N)cc1 [Compound 1140]
- MASP-2 vs. thrombin selectivity [1]: — (less than 1.0-fold)

SMILES: C[C@H](NC(=O)[C@@H](CCc1ccccc1)NCc1ccc(F)cc1)C(=O)NCc1ccc(C(=N)N)cc1 [Compound 1141]
- MASP-2 vs. thrombin selectivity [1]: — (less than 1.0-fold)
- Ki ([1]; read-out: MASP-2 Ki): < 0.5 µM
- Ki [2, 8]: < 0.5 µM

SMILES: COC(=O)CCCCCN[C@H](CCc1ccccc1)C(=O)N[C@@H](C)C(=O)NCc1ccc(C(=N)N)cc1 [Compound 1142]
- MASP-2 vs. thrombin selectivity [1]: * (1.0 to 5.0-fold)
- Ki ([1]; read-out: MASP-2 Ki): < 0.5 µM
- Ki [2, 8]: < 0.5 µM

SMILES: C[C@H](NC(=O)[C@@H](CCc1ccccc1)NCc1cc2ccccc2[nH]1)C(=O)NCc1ccc(C(=N)N)cc1 [Compound 1143]
- MASP-2 vs. thrombin selectivity [1]: — (less than 1.0-fold)
- Ki ([1]; read-out: MASP-2 Ki): < 0.5 µM
- Ki [4]: < 500 nM
- Ki [2, 8]: < 0.5 µM

SMILES: C[C@H](NC(=O)[C@H]1CCc2ccccc2N1)C(=O)NCc1ccc(C(=N)N)cc1 [Compound 1215]
- Ki [4]: < 25000 nM

SMILES: C[C@H](NC(=O)[C@H](N)CCc1ccccc1)C(=O)NCc1ccc(C(=N)N)cc1 [Compound 1218]
- MASP-2 vs. thrombin selectivity [1]: — (less than 1.0-fold)

SMILES: CCOC(=O)COc1ccc(Cl)cc1CNC(=O)[C@H](C)NC(=O)[C@H](N)CCc1ccccc1 [Compound 1229]
- Ki [2, 8]: < 10 µM

SMILES: CCCCOC(=O)NC(=N)c1ccc(CNC(=O)[C@H](C)NC(=O)[C@H]2C[C@H](c3ccccc3)CN2)cc1 [Compound 1260]
- Ki ([1]; MASP-2 Ki (μM)): 2.5 to 10 µM
- Ki ([2]; Thrombin Ki (μM)): > 25 µM

SMILES: CC[C@H](NC(=O)[C@H](N)CCc1ccccc1)C(=O)NCc1ccc(C(=N)N)cc1 [Compound 1289]
- MASP-2 vs. thrombin selectivity [1]: — (<1.0-fold)

SMILES: C[C@H](NC(=O)[C@H](N)CCc1ccccc1)C(=O)NCc1cc(Cl)ccc1-n1cnnn1 [Compound 1325]
- MASP-2 vs. thrombin selectivity [1]: — (<1.0-fold)

SMILES: C[C@H](NC(=O)[C@H]1C[C@H](Cc2ccccc2)CN1)C(=O)NCc1cnc2[nH]cc(Cl)c2c1 [Compound 1334]
- MASP-2 vs. thrombin selectivity [1]: — (<1.0-fold)

SMILES: Cc1nc(N)ccc1CNC(=O)[C@H](C)NC(=O)[C@H]1C[C@H](Cc2ccc3ccccc3c2)CN1 [Compound 1338]
- MASP-2 vs. thrombin selectivity [1]: *** (≥25 to <100-fold)

SMILES: Cc1nc(N)ccc1CNC(=O)[C@@H](C)NC(=O)[C@H]1C[C@H](c2cccc(-c3ccccc3)c2)CN1 [Compound 1359]
- Ki [5]: 10000 to 25000 nM
- Ki ([2]; Thrombin Ki (μM)): > 25 µM

SMILES: Cc1nc(N)ccc1CNC(=O)[C@H](C)NC(=O)[C@H]1C[C@H](c2cccc(-c3ccccc3)c2)CN1 [Compound 1360]
- Ki [5]: < 500 nM
- Ki ([2]; Thrombin Ki (μM)): > 25 µM
- IC50 ([3]; read-out: Lectin Pathway IC50): 50 to 500 nM

SMILES: Cc1nc(N)ccc1CNC(=O)[C@H](C)NC(=O)[C@H]1C[C@@H](c2ccccc2)CCN1CC(=O)O [Compound 1398]
- Ki [5]: < 500 nM

SMILES: C[C@H](NC(=O)[C@H]1C[C@H](Cc2cccc3ccccc23)CN1)C(=O)NCc1cc(Cl)ccc1-n1cnnn1 [Compound 1414]
- MASP-2 vs. thrombin selectivity [1]: — (<1.0-fold)

SMILES: Cc1nc(N)ccc1CNC(=O)[C@H](C)NC(=O)[C@H]1CC(Cc2ccc(F)cc2)(Cc2ccc(F)cc2)CN1 [Compound 1480]
- Ki [5]: < 500 nM

SMILES: N=C(N)c1ccc2[nH]c(Cc3nc4ccccc4[nH]3)nc2c1 [Compound 2015]
- Ki ([1]; MASP-2 Ki (μM), −Zn): < 10 µM

SMILES: N=C(N)c1ccc(CNC(=O)Cn2c(=O)n(Cc3ccccc3)c(=O)c3ccc(C(=O)NC4CCCCC4)cc32)cc1 [Compound 2021]
- IC50 ([3]; read-out: Lectin Ki (Lectin Pathway Inhibition, IC50)): 5000 to 50000 nM

SMILES: C[C@@H]1C[C@H]2[C@@H]3CCC4=CC(=O)C=C[C@]4(C)[C@@]3(F)[C@@H](O)C[C@]2(C)[C@@]1(O)C(=O)CO [dexamethasone]
- 28-day mortality ([6]; invasive mechanical ventilation): 29.0%
- 28-day mortality ([6]; no respiratory support at randomization): 17.0%
- 28-day mortality [6, 9]: 21.5%
- Reduction of 28-day mortality [6, 9]: 14%
- Reduction of 28-day mortality ([6]; patients on invasive mechanical ventilation): 28.7%
